From patent US10183949B2, “Pyrimidinone derivative having autotaxin-inhibitory activity” (The University of Tokyo, priority 2014, dated 2019)

The molecules below were run against T1, Human autotaxin enzyme (Homo sapiens, UniProt Q13822) (assay: Evaluation of autotaxin inhibitor, 18:0 Lyso PC / choline assay (Test Example 2)). Settings: autotaxin inhibition, IC50 class; read-out: Inhibitor activity.
T1 construct: purchased R&D System
Type: biochemical
How it was run: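 Inhibition derived from concentration-dependent curves, scaled between no-compound (0%) and no-enzyme (100%) wells. Choline generated from 18:0 Lyso PC (200 μM stock) by human enzyme over 2 h at room temperature (Tris-HCl pH 7.5, NaCl, MgCl2, Triton X-100) read as resorufin fluorescence, 531/598 nm, after choline oxidase-peroxidase coupling.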

SMILES	IC50 [nM]
COC(=O)Cn1c(CCCC(F)(F)F)nc(-c2ccc(C(F)(F)F)nc2)cc1=O [Compound I-0253]	100 to 1000
O=C(O)Cn1c(CCCC(F)(F)F)nc(-c2ccc(C(F)(F)F)cc2)cc1=O [Compound I-0255]	≥ 1000
CC(=O)Nc1cc(Cl)ccc1-c1cc(=O)n(CC(=O)NC2(C#N)CC2)c(C)n1 [Compound I-0248]	10 to 100
CSc1nc(-c2ccc(Cl)cc2NC(C)=O)cc(=O)n1CC(=O)NC(C)(C)CO [Compound I-0252]	10 to 100
N#CC1(NC(=O)Cn2c(CCCC(F)(F)F)nc(N3CCC(C(F)(F)F)CC3)c(F)c2=O)CC1 [Compound I-0241]	≥ 1000

Same assay, conditions: human autotaxin enzyme, 18:0 Lyso PC substrate, choline assay, room temperature 2 hours; read-out: Inhibitor activity (IC50)

SMILES	IC50 [nM]
COC(=O)Nc1cc(Cl)ccc1-c1cc(=O)n(CC(=O)NC2(C)COC2)c(C)n1 [Compound I-0410]	< 10
CCCCCNc1nc(-c2ccc(C(F)(F)F)cc2)cc(=O)n1Cc1ccc(C(=O)NCC(N)=O)cc1 [Compound I-0019]	≥ 1000
CCCCCc1nc(-c2ccc(Cl)cc2)cc(=O)n1CC [Compound I-0006]	≥ 1000
CCCOCc1nc(-c2ccc(Cl)cc2)cc(=O)n1CC(=O)NCC(C)(C)O [Compound I-0213]	100 to 1000
CCCOCc1nc(-c2ccc(Cl)cc2)cc(=O)n1CC(=O)NC1(C#N)CC1 [Compound I-0203]	100 to 1000
O=C(Cn1c(CCCC(F)(F)F)nc(-c2ccc(Cl)cc2)cc1=O)NCC1(CO)CC1 [Compound I-0124]	10 to 100
C[C@@H]1COC[C@H](C)N1C(=O)Cn1c(CCCC(F)(F)F)nc(-c2ccc(Cl)cc2)cc1=O [Compound I-0125]	10 to 100
CCCCCc1nc(-c2ccc(Cl)cc2)cc(=O)n1CC(=O)NC1(C#N)CCCCC1 [Compound I-0077]	100 to 1000
O=C(O)c1cncc(Cn2c(CCCC(F)(F)F)nc(-c3ccc(Cl)cc3)cc2=O)c1 [Compound I-0288]	10 to 100
CCCCCc1nc(-c2ccc(Cl)cc2)cc(=O)n1CC(=O)NCCCO [Compound I-0030]	100 to 1000
COCCCc1nc(-c2ccc(Cl)cc2)cc(=O)n1CC(=O)NCC(C)(C)O [Compound I-0230]	100 to 1000
COCCCc1nc(-c2ccc(Cl)cc2)cc(=O)n1CC(=O)NCC1(CO)CC1 [Compound I-0231]	100 to 1000
CC(C)(C)C(=O)Nc1cc(Cl)ccc1-c1cc(=O)n(Cc2cccc(C(=O)Nc3ccnc(O)c3)c2)cn1 [Compound I-0493]	≥ 1000
O=C(NC(CO)c1ccccc1)c1cccc(Cn2c(CCCC(F)(F)F)nc(-c3ccc(Cl)cc3)cc2=O)c1 (stereo not drawn) [Compound I-0178]	100 to 1000
N#CCCCOc1nc(-c2ccc(Cl)cc2)cc(=O)n1CC(=O)NC(Cc1ccccc1)C(=O)O (stereo not drawn) [Compound I-0116]	10 to 100
CC(C)(C)OC(=O)Cn1c(CCCC(F)(F)F)nc(-c2ccc(Cl)cc2CO)cc1=O [Compound I-0299]	< 10
Cc1nc(-c2ccc(Cl)cc2NC(=O)C2CC2)cc(=O)n1CC(=O)NCC1(CO)CC1 [Compound I-0434]	10 to 100
COC(=O)Nc1cc(Cl)ccc1-c1cc(=O)n(CC(=O)N2CCN(C(N)=O)CC2)c(C)n1 [Compound I-0459]	10 to 100
COC(=O)Nc1cc(C#N)ccc1-c1cc(=O)n(CC(=O)N(C)C(C)(C)C)c(C)n1 [Compound I-0374]	10 to 100
COC(=O)Nc1cc(Cl)ccc1-c1cc(=O)n(CC(=O)NC2(c3ccc(F)cc3)COC2)c(C)n1 [Compound I-0480]	10 to 100
O=C(NCC1(CO)COC1)c1cccc(Cn2c(CCCC(F)(F)F)nc(-c3ccc(Cl)cc3)cc2=O)n1 [Compound I-0358]	10 to 100
COC(=O)Nc1cc(C#N)ccc1-c1cc(=O)n(CC(=O)NC(C)C)c(C)n1 [Compound I-0389]	10 to 100
CCCCCc1nc(-c2ccc(Cl)cc2)cc(=O)n1CC(=O)NC(C)C [Compound I-0026]	10 to 100

SMILES	IC50 [nM]
CC(=O)NCCNC(=O)c1cccc(Cn2c(CCCC(F)(F)F)nc(-c3ccc(Cl)cc3)cc2=O)c1 [Compound I-0156]	100 to 1000
CCCCCNc1nc(-c2ccc(C#N)cc2)cc(=O)n1Cc1cccc(C(=O)OC(C)(C)C)c1 [Compound I-0021]	100 to 1000
CCCCCc1nc(-c2ccc(Cl)cc2)cc(=O)n1CC(=O)NC(C)C(=O)O (stereo not drawn) [Compound I-0039]	10 to 100
CC(C)(CNC(=O)Cn1c(CCCC(F)(F)F)nc(-c2ccc(Cl)cc2)cc1=O)N1CCOCC1 [Compound I-0122]	100 to 1000
CCCCCNc1nc(-c2ccc(C(F)(F)F)cc2)cc(=O)n1Cc1cccc(C(=O)NCC(=O)O)c1 [Compound I-0015]	10 to 100
O=C(Cn1c(CCCC(F)(F)F)nc(-c2ccc(C(F)(F)F)cc2)cc1=O)NCc1c[nH]nn1 [Compound I-0330]	10 to 100
N#CC1(NC(=O)Cn2c(CCCC(F)(F)F)nc(N3CCC(Cc4ccccc4)C3)cc2=O)CC1 (stereo not drawn) [Compound I-0219]	100 to 1000
O=C(Cn1c(COCC2CC2)nc(-c2ccc(Cl)cc2)cc1=O)NCC1(CO)CC1 [Compound I-0212]	100 to 1000
COC(=O)Nc1cc(Cl)ccc1-c1cc(=O)n(CC(=O)N2CCCC2(C)C)c(C)n1 [Compound I-0272]	10 to 100
Cc1nc(-c2ccc(Cl)cc2NC(=O)C2CC2)cc(=O)n1CC(=O)NC1(C#N)CC1 [Compound I-0416]	10 to 100
O=C(O)c1ccc(Cn2c(CCCC(F)(F)F)nc(-c3ccc(Cl)cc3)cc2=O)o1 [Compound I-0280]	10 to 100
Cc1noc(CNC(=O)Cn2c(CCCC(F)(F)F)nc(-c3ccc(Cl)cc3)cc2=O)n1 [Compound I-0141]	10 to 100
COC(=O)Nc1cc(Cl)ccc1-c1cc(=O)n(CC(=O)NCc2cc(=O)[nH]o2)c(C)n1 [Compound I-0439]	< 10
COC(=O)Nc1cc(Cl)ccc1-c1cc(=O)n(CC(=O)NCC(C)(C)O)c(C)n1 [Compound I-0413]	10 to 100
CCCCCc1nc(-c2ccc(Cl)cc2)[nH]c(=O)c1Cc1ccc(C(=O)O)cc1 [Compound I-0002]	100 to 1000
CCCCCc1nc(-c2ccc(Cl)cc2)cc(=O)n1CC(=O)NC1COC1 [Compound I-0028]	10 to 100
Cc1nc(-c2ccc(Cl)cc2NC(=O)C(C)(C)C)cc(=O)n1CC(=O)N1CCC(C(N)=O)CC1 [Compound I-0329]	10 to 100
O=C(Cn1c(CCCC(F)(F)F)nc(-c2ccc(C(F)(F)F)cc2)cc1=O)NCc1ccc(O)nc1 [Compound I-0340]	100 to 1000
CC1(O)CN(C(=O)Cn2c(CCCC(F)(F)F)nc(-c3ccc(C(F)(F)F)cc3)cc2=O)C1 [Compound I-0320]	100 to 1000
CC(C)(C)C(=O)Nc1cc(Cl)ccc1-c1cc(=O)n(CC(=O)Nc2cnccc2O)cn1 [Compound I-0447]	100 to 1000
O=C(Cn1c(CCCC(F)(F)F)nc(-c2ccc(Cl)cc2)cc1=O)NC(CO)(CO)CO [Compound I-0135]	10 to 100
N#CC1(NC(=O)Cn2c(CCCC(F)(F)F)nc(-c3ccc(Cl)cc3)c(F)c2=O)CC1 [Compound I-0218]	100 to 1000
Cc1nc(-c2ccc(Cl)cc2NC(=O)C2CC2)cc(=O)n1CC(=O)NCc1c[nH]nn1 [Compound I-0431]	10 to 100

SMILES	IC50 [nM]
N#CC1(NC(=O)Cn2c(CCCC(F)(F)F)nc(-c3ccc(C(F)(F)F)cc3)cc2=O)CC1 [Compound I-0225]	< 10
COC(=O)Nc1cc(Cl)ccc1-c1cc(=O)n(CC(=O)NC(C)(C)C)c(C)n1 [Compound I-0265]	10 to 100
CCCCCc1nc(-c2ccc(Cl)cc2)cc(=O)n1CC(=O)N1CC2(COC2)C1 [Compound I-0091]	≥ 1000
CCCCCc1nc(-c2ccc(Cl)cc2NC(C)=O)cc(=O)n1CC(=O)NC1(C#N)CC1 [Compound I-0205]	10 to 100
CCCCCc1nc(-c2ccc(Cl)cc2)cc(=O)n1CC(=O)NCc1cccc(=O)n1C [Compound I-0038]	100 to 1000
Cc1nc(CNC(=O)c2cccc(Cn3c(CCCC(F)(F)F)nc(-c4ccc(Cl)cc4)cc3=O)c2)no1 [Compound I-0189]	100 to 1000
CCS(=O)(=O)N1CCC(NC(=O)Cn2c(CCCC(F)(F)F)nc(-c3ccc(C(F)(F)F)cc3)cc2=O)CC1 [Compound I-0370]	100 to 1000
CCCCCc1nc(-c2ccc(Cl)cc2)cc(=O)n1Cc1cccc(C(=O)OC)c1 [Compound I-0074]	≥ 1000
CNC(=O)CNC(=O)Cn1c(CCCC(F)(F)F)nc(-c2ccc(Cl)cc2)cc1=O [Compound I-0126]	100 to 1000
CN(CC(O)CO)C(=O)Cn1c(CCCC(F)(F)F)nc(-c2ccc(Cl)cc2)cc1=O (stereo not drawn) [Compound I-0132]	100 to 1000
CN(C)C(=O)CNC(=O)Cn1c(CCCC(F)(F)F)nc(-c2ccc(Cl)cc2)cc1=O [Compound I-0127]	100 to 1000
CC(C)(O)CNC(=O)c1cccc(Cn2c(CCCC(F)(F)F)nc(-c3ccc(Cl)cc3)cc2=O)c1 [Compound I-0187]	100 to 1000
O=C(NCC1(CO)CC1)c1cccc(Cn2c(CCCC(F)(F)F)nc(-c3ccc(Cl)cc3)cc2=O)c1 [Compound I-0175]	100 to 1000
Cc1nc(-c2ccc(Cl)cc2NC(=O)C2CC2)cc(=O)n1CC(=O)NCC1CNC(=O)C1 (stereo not drawn) [Compound I-0451]	10 to 100
CCCCCc1nc(-c2ccc(Cl)cc2)cc(=O)n1CC(=O)N1CCC(c2cccc(C(=O)O)c2)CC1 [Compound I-0053]	10 to 100
CN1CNC(=O)C12CCN(C(=O)Cn1c(CCCC(F)(F)F)nc(-c3ccc(C(F)(F)F)cc3)cc1=O)CC2 [Compound I-0361]	10 to 100
CC(C)(C)C(=O)Nc1cc(Cl)ccc1-c1cc(=O)n(CC(=O)N2CCC(C(N)=O)CC2)cn1 [Compound I-0468]	10 to 100
CC(C)(C)OC(=O)NCn1c(CCCC(F)(F)F)nc(-c2ccc(Cl)cc2)cc1=O [Compound I-0283]	100 to 1000
N#CC1(NC(=O)Cn2c(CCCC(F)(F)F)nc(-c3ccc(Cl)cc3O)cc2=O)CC1 [Compound I-0226]	100 to 1000
O=C(NCC1(CO)COC1)c1ccc(Cn2c(CCCC(F)(F)F)nc(-c3ccc(Cl)cc3)cc2=O)o1 [Compound I-0355]	100 to 1000
CC(C)(O)CN1CCN(C(=O)Cn2c(CCCC(F)(F)F)nc(-c3ccc(Cl)cc3)cc2=O)CC1 [Compound I-0148]	100 to 1000
